Measurements from patent publication US20180250280A1 (BAYER PHARMA AKTIENGESELLSCHAFT, priority 2015, published 2018).
pIC50: −log10 of the molar value.

Experiments:
human plasma kallikrein = target: T1, human plasma kallikrein (Homo sapiens, UniProt P03952); experiment: Determination of the plasma kallikrein activity (fluorogenic peptide substrate, AMC cleavage); format: biochemical; conditions: plasma kallikrein from Kordia 0.6 nM; substrate H-Pro-Phe-Arg-AMC 10 μM; 30 min at 22° C.; in some cases averages from multiple determinations
T1 construct: purchased Kordia
T1 sequence (P03952 391-638 limits assumed): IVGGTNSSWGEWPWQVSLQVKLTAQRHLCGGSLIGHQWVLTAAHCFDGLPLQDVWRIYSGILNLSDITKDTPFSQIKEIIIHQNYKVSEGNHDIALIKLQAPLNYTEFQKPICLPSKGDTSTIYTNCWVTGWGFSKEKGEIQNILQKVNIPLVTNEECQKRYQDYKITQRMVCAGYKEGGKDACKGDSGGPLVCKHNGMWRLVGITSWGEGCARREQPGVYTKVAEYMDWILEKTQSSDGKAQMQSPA
T1 sequence (P03952 20-390 partner limits assumed): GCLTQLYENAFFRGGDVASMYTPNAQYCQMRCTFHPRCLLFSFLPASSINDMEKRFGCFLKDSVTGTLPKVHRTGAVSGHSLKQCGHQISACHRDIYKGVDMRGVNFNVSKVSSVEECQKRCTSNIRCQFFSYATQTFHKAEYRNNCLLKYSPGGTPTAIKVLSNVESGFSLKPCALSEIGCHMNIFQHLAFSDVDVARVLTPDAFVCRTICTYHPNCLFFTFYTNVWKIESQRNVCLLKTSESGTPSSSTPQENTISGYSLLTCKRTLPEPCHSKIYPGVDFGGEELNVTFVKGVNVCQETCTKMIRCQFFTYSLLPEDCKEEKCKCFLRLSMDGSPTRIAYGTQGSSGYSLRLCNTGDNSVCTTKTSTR
Experimental: (§1) To determine the plasma kallikrein inhibition of the substances according to the invention, a biochemical test system is used which utilizes the reaction of a peptidic plasma kallikrein substrate to determine the enzymatic activity of human plasma kallikrein. Here, plasma kallikrein cleaves from the peptic plasma kallikrein substrate the C-terminal aminomethylcoumarin (AMC), the fluorescence of which is measured. The determinations are conducted in microtitre plates.
Test substances are dissolved in dimethyl sulfoxide and serially diluted in dimethyl sulfoxide (3000 μM to 0.0078 μM; resulting final concentrations in the test: 50 μM to 0.00013 μM). 1 μl of the diluted substance solutions is placed into each of the wells of white microtitre plates from Greiner (384 wells). 20 μl of assay buffer (50 mM Tris/HCl pH 7.4; 100 mM sodium chloride solution; 5 mM calcium chloride solution; 0.1% of bovine serum albumin) and 20 μl of plasma kallikrein from Kordia (0.6 nM in assay buffer) are then added successively. After 15 min of incubation, the enzyme reaction is started by addition of 20 μl of the substrate H-Pro-Phe-Arg-AMC dissolved in assay buffer (10 μM in assay buffer) from Bachem, the mixture is incubated at room temperature (22° C.) for 30 min and fluorescence is then measured (excitation: 360 nm, emission: 460 nm). The measured emissions of the test batches with test substance are compared to those of control batches without test substance (only dimethyl sulfoxide instead of test substance in dimethyl sulfoxide), and IC50 values are calculated from the concentration/activity relationships. Activity data from this test are given in Table B below (in some cases as averages from multiple individual determinations): […]

human factor XIa = target: T2, human factor XIa (Homo sapiens, UniProt P03951); experiment: Measurement of FXIa inhibition (fluorogenic peptide substrate, AMC cleavage); format: biochemical; conditions: factor XIa from Kordia 0.45 nM; substrate Boc-Glu(OBzl)-Ala-Arg-AMC 10 μM; 30 min at 22° C.; in some cases averages from multiple determinations
T2 construct: purchased Kordia
T2 sequence (P03951 388-625 limits assumed): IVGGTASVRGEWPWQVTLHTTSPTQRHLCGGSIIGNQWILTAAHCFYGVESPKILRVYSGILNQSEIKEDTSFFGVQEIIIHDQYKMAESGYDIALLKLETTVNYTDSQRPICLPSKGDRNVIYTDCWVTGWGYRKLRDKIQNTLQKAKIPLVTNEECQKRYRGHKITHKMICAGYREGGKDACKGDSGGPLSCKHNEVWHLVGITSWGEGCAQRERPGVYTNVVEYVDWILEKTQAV
T2 sequence (P03951 19-387 partner limits assumed): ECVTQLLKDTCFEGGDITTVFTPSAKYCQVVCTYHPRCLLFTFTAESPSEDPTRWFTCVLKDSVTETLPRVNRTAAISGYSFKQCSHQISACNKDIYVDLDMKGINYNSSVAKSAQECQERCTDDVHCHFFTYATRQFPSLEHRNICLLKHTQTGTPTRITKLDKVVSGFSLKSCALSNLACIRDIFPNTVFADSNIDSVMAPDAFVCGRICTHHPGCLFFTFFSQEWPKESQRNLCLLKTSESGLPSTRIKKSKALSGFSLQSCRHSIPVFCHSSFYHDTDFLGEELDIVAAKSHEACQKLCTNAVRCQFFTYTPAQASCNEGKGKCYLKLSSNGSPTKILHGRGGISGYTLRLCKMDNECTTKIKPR
Experimental: as §1, with “The factor XIa” for “To determine the plasma kallikrein”, “invention is determined using” for “invention,”, “system” for “system is used”, “factor XIa” for “plasma kallikrein”, “factor XIa.” for “plasma kallikrein.”
Test substances are dissolved in dimethyl sulfoxide and serially diluted in dimethyl sulfoxide (3000 μM to 0.0078 μM; resulting final concentrations in the test: 50 μM to 0.00013 μM). 1 μl of the diluted substance solutions is placed into each of the wells of white microtitre plates from Greiner (384 wells). 20 μl of assay buffer (50 mM of Tris/HCl pH 7.4; 100 mM of sodium chloride; 5 mM of calcium chloride; 0.1% of bovine serum albumin) and 20 μl of factor XIa from Kordia (0.45 nM in assay buffer) are then added successively. After 15 min of incubation, the enzyme reaction is started by addition of 20 μl of the factor XIa substrate Boc-Glu(OBzl)-Ala-Arg-AMC dissolved in assay buffer (10 μM in assay buffer) from Bachem, the mixture is incubated at room temperature (22° C.) for 30 min and fluorescence is then measured (excitation: 360 nm, emission: 460 nm). The measured emissions of the test batches with test substance are compared to those of control batches without test substance (only dimethyl sulfoxide instead of test substance in dimethyl sulfoxide), and IC50 values are calculated from the concentration/activity relationships. Activity data from this test are given in Table A below (in some cases as averages from multiple individual determinations): […]

Compound | pIC50 (human plasma kallikrein) | pIC50 (human factor XIa)
COc1cn(C(CCOC(C)C)C(=O)Nc2ccc3nn(C)cc3c2)c(=O)cc1-c1cc(Cl)ccc1OCC(F)(F)F (racemic) [Example 39, 2-{4-[5-Chloro-2-(2,2,2-trifluoroethoxy)phenyl]-5-methoxy-2-oxopyridin-1(2H)-yl}-4-isopropoxy-N-(2-methyl-2H-indazol-5-yl)butanamide] | 7.25 | 7.80
COc1cn(C(C[C@@H]2CCCCO2)C(=O)Nc2ccc(C(=O)O)cc2)c(=O)cc1-c1cc(Cl)ccc1OCC(F)(F)F (stereo partly drawn) [Example 49, 4-[(2-{4-[5-Chloro-2-(2,2,2-trifluoroethoxy)phenyl]-5-methoxy-2-oxopyridin-1(2H)-yl}-3-[(2S)-tetrahydro-2H-pyran-2-yl]propanoyl)amino]benzoic acid] | 7.48 | 9.05
CNC(=O)c1ccc(NC(=O)C(Cc2ccn(C)n2)n2cc(OC)c(-c3cc(Cl)ccc3OCC(F)(F)F)cc2=O)cn1 (racemic) [Example 15, 5-{[2-{4-[5-Chloro-2-(2,2,2-trifluoroethoxy)phenyl]-5-methoxy-2-oxopyridin-1(2H)-yl}-3-(1-methyl-1H-pyrazol-3-yl)propanoyl]amino}-N-methylpyridine-2-carboxamide] | 7.46 | 8.19
CNC(=O)c1ccc(NC(=O)C(C[C@H](C)OC)n2cc(OC)c(-c3cc(Cl)ccc3OCC(F)(F)F)cc2=O)cn1 (mixture of isomers) [Example 36, 5-{[(4S)-2-{4-[5-Chloro-2-(2,2,2-trifluoroethoxy)phenyl]-5-methoxy-2-oxopyridin-1(2H)-yl}-4-methoxypentanoyl]amino}-N-methylpyridine-2-carboxamide] | 7.15 | 8.21
CNC(=O)c1ccc(NC(=O)C(CC2COCCO2)n2cc(OC)c(-c3cc(Cl)ccc3OCCF)cc2=O)cn1 (stereo not shown) [Example 46, 5-{[2-{4-[5-Chloro-2-(2-fluoroethoxy)phenyl]-5-methoxy-2-oxopyridin-1(2H)-yl}-3-(1,4-dioxan-2-yl)propanoyl]amino}-N-methylpyridine-2-carboxamide] | 6.82 | 8.05
COc1cn(C(CCOC(C)(C)C)C(=O)Nc2ccc3nn(C)cc3c2)c(=O)cc1-c1cc(Cl)ccc1OCC(F)F (racemic) [Example 28, 4-tert-Butoxy-2-{4-[5-chloro-2-(2,2-difluoroethoxy)phenyl]-5-methoxy-2-oxopyridin-1(2H)-yl}-N-(2-methyl-2H-indazol-5-yl)butanamide] | 6.92 | 7.55
CCCC(C(=O)Nc1ccc2nccnc2c1)n1cc(OC)c(-c2cc(Cl)ccc2OCC(F)(F)F)cc1=O (racemic) [Example 64, N-(Quinoxalin-6-yl)-2-{4-[5-chloro-2-(2,2,2-trifluoroethoxy)phenyl]-5-methoxy-2-oxopyridin-1(2H)-yl}pentanamide] | 7.23 | 7.44
COc1cn(C(CC2COCCO2)C(=O)Nc2ccc(C(N)=O)nc2)c(=O)cc1-c1cc(Cl)ccc1OCCF (stereo not shown) [Example 45, 5-{[2-{4-[5-Chloro-2-(2-fluoroethoxy)phenyl]-5-methoxy-2-oxopyridin-1(2H)-yl}-3-(1,4-dioxan-2-yl)propanoyl]amino}pyridine-2-carboxamide] | 6.55 | 7.85
COc1cn(C(CC2COCCO2)C(=O)Nc2ccc(C(N)=O)nc2)c(=O)cc1-c1cc(Cl)ccc1OCC(F)F (stereo not shown) [Example 30, 5-{[2-{4-[5-Chloro-2-(2,2-difluoroethoxy)phenyl]-5-methoxy-2-oxopyridin-1(2H)-yl}-3-(1,4-dioxan-2-yl)propanoyl]amino}pyridine-2-carboxamide] | 7.13 | 8.33
COc1cn(C(CCOC(C)(C)C)C(=O)Nc2ccc(C(N)=O)nc2)c(=O)cc1-c1cc(Cl)ccc1OCC(F)F (racemic) [Example 27, 5-[(4-tert-Butoxy-2-{4-[5-chloro-2-(2,2-difluoroethoxy)phenyl]-5-methoxy-2-oxopyridin-1(2H)-yl}butanoyl)amino]pyridine-2-carboxamide] | 7.02 | 7.74
CNC(=O)c1ccc(NC(=O)C(CC2COCCO2)n2cc(OC)c(-c3cc(Cl)ccc3OCC(F)F)cc2=O)cn1 (stereo not shown) [Example 31, 5-{[2-{4-[5-Chloro-2-(2,2-difluoroethoxy)phenyl]-5-methoxy-2-oxopyridin-1(2H)-yl}-3-(1,4-dioxan-2-yl)propanoyl]amino}-N-methylpyridine-2-carboxamide] | 6.92 | 8.15
COc1cn(C(CCOC(C)C)C(=O)Nc2ccc(C(=O)O)cc2)c(=O)cc1-c1cc(Cl)ccc1OCC(F)(F)F (racemic) [Example 34, 4-[(2-{4-[5-Chloro-2-(2,2,2-trifluoroethoxy)phenyl]-5-methoxy-2-oxopyridin-1(2H)-yl}-4-isopropoxybutanoyl)amino]benzoic acid] | 7.35 | 8.72
COc1cn(C(C[C@H](C)OC)C(=O)Nc2ccc3nn(C)cc3c2)c(=O)cc1-c1cc(Cl)ccc1OCC(F)(F)F (mixture of isomers) [Example 37, (4S)-2-{4-[5-Chloro-2-(2,2,2-trifluoroethoxy)phenyl]-5-methoxy-2-oxopyridin-1(2H)-yl}-4-methoxy-N-(2-methyl-2H-indazol-5-yl)pentanamide] | 7.14 | 8.10
COc1cn(C(CCOC2(C)CCC2)C(=O)Nc2ccc(C(N)=O)c(F)c2)c(=O)cc1-c1cc(Cl)ccc1OCC(F)(F)F (racemic) [Example 59, 4-[[2-[4-[5-Chloro-2-(2,2,2-trifluoroethoxy)phenyl]-5-methoxy-2-oxo-1-pyridyl]-4-(1-methylcyclobutoxy)butanoyl]amino]-2-fluorobenzamide] | 6.96 | 7.85
CCCC(C(=O)Nc1ccc2nn(C)cc2c1)n1cc(OC)c(-c2cc(Cl)ccc2OCC(F)(F)F)cc1=O (racemic) [Example 65, 2-{4-[5-Chloro-2-(2,2,2-trifluoroethoxy)phenyl]-5-methoxy-2-oxopyridin-1(2H)-yl}-N-(2-methyl-2H-indazol-5-yl)pentanamide] | 6.85 | 7.40
COc1cn(C(C[C@@H]2CCCCO2)C(=O)Nc2ccc(C(=O)O)cc2)c(=O)cc1-c1cc(Cl)ccc1OCC(F)(F)F (single isomer, unassigned) [Example 50] | 7.72 | 9.39
COc1cn(C(CCOC(C)(C)C)C(=O)Nc2ccc3nn(C)cc3c2)c(=O)cc1-c1cc(Cl)ccc1OCC(F)(F)F (racemic) [Example 9, 4-tert-Butoxy-2-{4-[5-chloro-2-(2,2,2-trifluoroethoxy)phenyl]-5-methoxy-2-oxopyridin-1(2H)-yl}-N-(2-methyl-2H-indazol-5-yl)butanamide] | 7.24 | 7.85
CCCC(C(=O)Nc1ccc(C(N)=O)nc1)n1cc(OC)c(-c2cc(Cl)ccc2OCC(F)(F)F)cc1=O (racemic) [Example 68, 5-{[2-{4-[5-Chloro-2-(2,2,2-trifluoroethoxy)phenyl]-5-methoxy-2-oxopyridin-1(2H)-yl}pentanoyl]amino}pyridine-2-carboxamide] | 6.60 | 7.43
COc1cn([C@@H](C[C@@H]2CCCCO2)C(=O)Nc2ccc(C(=O)O)cc2)c(=O)cc1-c1cc(Cl)ccc1OCC(F)(F)F (single isomer, unassigned) [Example 78] | 7.72 | 9.39
CNC(=O)c1ccc(NC(=O)C(CCOC)n2cc(OC)c(-c3cc(Cl)ccc3OCC(F)(F)F)cc2=O)cn1 (racemic) [Example 4, 5-[(2-{4-[5-Chloro-2-(2,2,2-trifluoroethoxy)phenyl]-5-methoxy-2-oxopyridin-1(2H)-yl}-4-methoxybutanoyl)amino]-N-methylpyridine-2-carboxamide] | 7.31 | 8.19
